{"source": "patent US4880820A", "about": "“Guanine derivatives” (Merck & Co., Inc., priority 1988, dated 1989)", "key": {"herpes viruses": {"test_system": "herpes viruses", "experiment": "antiviral activity against herpes viruses (general statement)"}, "[1]": {"test_system": "Herpes simplex virus type 1 (HSV-1), strain Schooler", "experiment": "Oral treatment of intraperitoneal HSV-1 infection of mice (Example 17)", "format": "in vivo, ICR/Ha mice", "details": "for Percent Survival: at 15 days", "method": "Twenty gram ICR/Ha mice were injected intraperitoneally (i.p.) with 0.5 ml of a 10^-5 dilution of a stock preparation of Herpes Simplex virus type 1 (HSV-1), strain Schooler. This virus challenge infected mice with approximately 50 to 100 LD50. Starting immediately after virus infection and continuing twice daily for 7 days, each animal was treated by oral gavage in groups of 10 with: 500 μg, 125 μg, 31 μg or 8 μg of (S)-9-(2,3-dihydroxy-1propoxymethyl)guanine; 500 μg, 125 μg, 31 μg or 8 μg of acyclovir or placebo (physiological saline, pH 11.5). All compounds were solubilized in physiological saline, pH 11.5.\n(§1) The statistical analyses were carried out as described in Example 15."}, "[2]": {"test_system": "Herpes simplex virus type 1 (HSV-1), strain Schooler", "experiment": "Parenteral (subcutaneous) treatment of Herpes simplex virus type 1 infection in mice", "format": "in vivo, ICR/Ha mice", "details": "for Avg. Survival Time / Percent Survival: s.c.", "method": "(§2) Twenty gram ICR/Ha mice were injected intraperitoneally (ip) with 0.5 ml of a 10^-5 dilution of a stock preparation of Herpes simplex virus type 1 (HSV-1), strain Schooler. This virus challenge infected each animal with approximately 50 to 100 LD50. Starting immediately after virus infection and continuing twice daily for 4 days, each animal was injected subcutaneously in groups of 10 with: 125 μg, 31 μg, 8 μg or 2 μg of compounds A, B or C; or placebo (physiological saline, pH 11.5). All compounds were solubilized in physiological saline, pH 11.5. The mice were observed daily for 15 days at the same time each day and the day of death was recorded for each animal.\nStatistical analyses [reference: Liddel, F.D.K., Evaluation of Survival in Challenge Experiments, Microbiol. Rev., 42, 237 (1978)]were performed on survival times transformed by the negative exponential transformation:\nt=number of days an animal survived\nT=duration of trial (15 days)\nA continuity correction was used to account for daily observation:\nWithin each group, mice surviving through the trial period were assigned equally values of 0.9 and 1.0 to adjust for termination of the trial.\nAverage survival time per group was calculated from average corrected transformed survival times [fc (t)] as follows:\nt avg=[T/log(0.1).[log(1-fc (t)]"}, "[3]": {"test_system": "Herpes simplex virus Type 2 (Curtis)", "experiment": "Method 1: inhibition of viral induced cytopathology in primary rabbit kidney cell cultures, HSV-2", "format": "cell-based", "details": "Human alphaherpesvirus 2; HSV-2 (Curtis), primary rabbit kidney cells; total suppression of cytopathology in 50% of cultures; read-out: Minimum Effective Concentration", "method": "(§3) Method 1: Confluent monolayers of primary rabbit kidney cell cultures were refed with maintenance medium containing serial dilutions of the test compounds and incubated overnight at 37° C. At each dilution, four cultures were challenged with approximately 10 TCID50 HSV-1, four cultures were challenged with approximately 10 TCID50 HSV-2,and two cultures were left as toxicity controls. Cultures were reincubated at 37° C. and observed for viral induced cytopathology at days 5 and 7. Minimum Effective Concentration (μg/ml) is defined as the concentration of antiviral compound required to totally suppress the development of viral cytopathology in 50% of the infected rabbit kidney cell cultures."}, "[4]": {"test_system": "Herpes simplex virus Type 1 (Schooler)", "experiment": "Method 2: virus plaque reduction in MRC-5 cells, HSV-1", "format": "cell-based", "method": "Method 2: Confluent monolayers of MRC-5 cells were incubated for one hour at 37° C. with 50-100 plaque forming units of the indicated virus. Following incubation, the cell monolayers were refed with maintenance medium containing 2% methyl cellulose and the chemical agent indicated. Duplicate cultures were incubated with each concentration of the chemical agent tested. Following further incubation for 3 days at 37° C., the monolayers were stained and the developed virus plaques were counted. The concentration (μg/ml) of each chemical agent which reduced plaque development by 50% (ED50) was determined."}, "[5]": {"test_system": "Herpes simplex virus Type 1 (Schooler)", "experiment": "Method 1: inhibition of viral induced cytopathology in primary rabbit kidney cell cultures, HSV-1", "format": "cell-based", "details": "Human alphaherpesvirus 1; HSV-1 (Schooler), primary rabbit kidney cells; total suppression of cytopathology in 50% of cultures; read-out: Minimum Effective Concentration", "method": "as §3"}, "[6]": {"test_system": "Herpes simplex virus type 1 (HSV-1), strain Schooler", "experiment": "Oral treatment of intraperitoneal HSV-1 infection of mice (Example 16)", "format": "in vivo, ICR/Ha mice", "method": "as §2, with “(i.p.)” for “(ip)”, “LD50 s.” for “LD50.”, “7” for “4”, “treated by oral gavage” for “injected subcutaneously”, “with: 250 μg, 125 μg, 8 μg or 2 μg of (S)-9-(2,3-dihydroxy-1-propoxymethyl)guanine; 500 μg,” for “with:”, “racemic 9-(2,3-dihydroxy-1-propoxymethyl)guanine;” for “compounds A, B or C;”\nas §1"}, "[7]": {"details": "125 μg/dose twice daily for 7 days, 12.5 mg/kg/day"}, "[8]": {"details": "500 μg/dose twice daily for 7 days, 50 mg/kg/day"}}, "note": "“Also recorded” adds a separate entry of the source."}
{"smiles": "Nc1nc2c(ncn2COC[C@@H](O)CO)c(=O)[nH]1", "note": "[A, (S)-9-(2,3-dihydroxy-1-propoxymethyl)guanine]", "values": [{"measurement": "antiviral (antiherpetic) activity", "setting": "herpes viruses; general statement in words", "value": "substantial antiviral activity against various herpes viruses; also recorded: potent antiherpetic activity"}, {"measurement": "antiviral (antiherpetic) activity compared with acyclovir", "setting": "herpes viruses; vs 9-(2-hydroxyethoxymethyl)guanine (acyclovir)", "value": "significantly greater antiviral activity; also recorded: much more potent"}, {"measurement": "antiherpetic activity compared with the racemic mixture or the (R)-enantiomer", "setting": "herpes viruses; vs racemic mixture or (R)-enantiomer", "value": "better than the corresponding racemic mixture or the (R)-enantiomer"}, {"measurement": "Avg. Survival Time", "setting": "[1]; 8 μg/dose twice daily for 7 days, 0.8 mg/kg/day, ^b (all): not statistically different from placebo", "value": 6.2, "unit": "days"}, {"measurement": "Percent Survival", "setting": "[1]; 8 μg/dose twice daily for 7 days, 0.8 mg/kg/day", "value": 0, "unit": "%"}, {"measurement": "Avg. Survival Time", "setting": "[1]; 31 μg/dose twice daily for 7 days, 3.1 mg/kg/day, ^b (all): not statistically different from placebo", "value": 6.9, "unit": "days"}, {"measurement": "Percent Survival", "setting": "[1]; 31 μg/dose twice daily for 7 days, 3.1 mg/kg/day", "value": 0, "unit": "%"}, {"measurement": "Avg. Survival Time", "setting": "[1]; [7]", "value": 8.1, "unit": "days"}, {"measurement": "Percent Survival", "setting": "[1]; [7]", "value": 0, "unit": "%"}, {"measurement": "Avg. Survival Time", "setting": "[1]; [8]", "value": 12.9, "unit": "days"}, {"measurement": "Percent Survival", "setting": "[1]; [8]", "value": 30, "unit": "%"}, {"measurement": "protection over placebo-treated animals, as measured by average survival time", "setting": "[1]; 12.5 mg/kg/day", "value": "conferred significant protection over placebo-treated animals"}, {"measurement": "protection over placebo-treated animals, as measured by average survival time", "setting": "[1]; 50 mg/kg/day", "value": "conferred significant protection over placebo-treated animals"}, {"measurement": "relative potency to acyclovir", "setting": "[1]; statistically significant", "value": 2.8}, {"measurement": "relative potency of A to C", "setting": "[2]; parallel line analysis, not statistically significant", "value": 2.3}, {"measurement": "relative potency of A to B", "setting": "[2]; parallel line analysis, statistically significant", "value": 5.3}, {"measurement": "Avg. Survival Time", "setting": "[2]; 2 μg/dose twice daily for 4 days, 0.2 mg/kg/day, ^3 (all): not statistically different from placebo", "value": 6.1, "unit": "days"}, {"measurement": "Percent Survival", "setting": "[2]; 2 μg/dose twice daily for 4 days, 0.2 mg/kg/day, at 15 days", "value": 0, "unit": "%"}, {"measurement": "Avg. Survival Time", "setting": "[2]; 8 μg/dose twice daily for 4 days, 0.8 mg/kg/day, ^3 (all): not statistically different from placebo", "value": 6.7, "unit": "days"}, {"measurement": "Percent Survival", "setting": "[2]; 8 μg/dose twice daily for 4 days, 0.8 mg/kg/day, at 15 days", "value": 0, "unit": "%"}, {"measurement": "Avg. Survival Time", "setting": "[2]; 31 μg/dose twice daily for 4 days, 3.1 mg/kg/day, ^3 (all): not statistically different from placebo", "value": 7.6, "unit": "days"}, {"measurement": "Percent Survival", "setting": "[2]; 31 μg/dose twice daily for 4 days, 3.1 mg/kg/day, at 15 days", "value": 10, "unit": "%"}, {"measurement": "Avg. Survival Time", "setting": "[2]; 125 μg/dose twice daily for 4 days, 12.5 mg/kg/day, ^3 (B, acyclovir): not statistically different from placebo", "value": 10.7, "unit": "days"}, {"measurement": "Percent Survival", "setting": "[2]; 125 μg/dose twice daily for 4 days, 12.5 mg/kg/day, at 15 days (acyclovir not at the same time)", "value": 40, "unit": "%"}, {"measurement": "minimal effective concentration", "setting": "[3]", "value": 3.1, "unit": "µg/mL"}, {"measurement": "fold more effective than B in protecting cell cultures against HSV-1 infection", "setting": "[4]; A vs B, conclusion of Example 14 (Methods 1 and 2)", "value": "10 to 25", "unit": "fold"}, {"measurement": "fold more active than C in protecting cell cultures against HSV-1 infection", "setting": "[4]; A vs C, conclusion of Example 14 (Methods 1 and 2)", "value": "about 2 fold"}, {"measurement": "EC50", "setting": "[4]; Human alphaherpesvirus 1, MRC5, 72 h, HSV-1 (Schooler), MRC-5 cells, 3 days, 50% reduction of plaque development, read-out: ED50 (the source's name)", "value": 0.5, "unit": "mg/L"}, {"measurement": "minimal effective concentration", "setting": "[5]", "value": "0.8 to 1.5", "unit": "µg/mL"}, {"measurement": "Avg. Survival Time", "setting": "[6]; 2 μg/dose twice daily for 7 days, 0.2 mg/kg/day, ^3 (all): not statistically different from placebo", "value": 7.2, "unit": "days"}, {"measurement": "Percent Survival", "setting": "[6]; 2 μg/dose twice daily for 7 days, 0.2 mg/kg/day, at 15 days", "value": 0, "unit": "%"}, {"measurement": "Avg. Survival Time", "setting": "[6]; 8 μg/dose twice daily for 7 days, 0.8 mg/kg/day, ^3 (all): not statistically different from placebo", "value": 7.2, "unit": "days"}, {"measurement": "Percent Survival", "setting": "[6]; 8 μg/dose twice daily for 7 days, 0.8 mg/kg/day, at 15 days", "value": 0, "unit": "%"}, {"measurement": "Avg. Survival Time", "setting": "[6]; 31 μg/dose twice daily for 7 days, 3.1 mg/kg/day, ^3 (all): not statistically different from placebo", "value": 7.5, "unit": "days"}, {"measurement": "Percent Survival", "setting": "[6]; 31 μg/dose twice daily for 7 days, 3.1 mg/kg/day, at 15 days (acyclovir not at the same time)", "value": 0, "unit": "%"}, {"measurement": "Avg. Survival Time", "setting": "[6]; 125 μg/dose twice daily for 7 days, 12.5 mg/kg/day, ^3 (racemate, acyclovir): not statistically different from placebo", "value": 10.2, "unit": "days"}, {"measurement": "Percent Survival", "setting": "[6]; 125 μg/dose twice daily for 7 days, 12.5 mg/kg/day, at 15 days (acyclovir not at the same time)", "value": 20, "unit": "%"}, {"measurement": "Avg. Survival Time", "setting": "[6]; 250 μg/dose twice daily for 7 days, 25 mg/kg/day", "value": 9.8, "unit": "days"}, {"measurement": "Percent Survival", "setting": "[6]; 250 μg/dose twice daily for 7 days, 25 mg/kg/day, at 15 days", "value": 10, "unit": "%"}, {"measurement": "protection over placebo-treated animals, as measured by average survival time", "setting": "[6]; 12.5 mg/kg/day", "value": "conferred significant protection over placebo-treated animals"}, {"measurement": "protection over placebo-treated animals, as measured by average survival time", "setting": "[6]; 25 mg/kg/day", "value": "conferred significant protection over placebo-treated animals"}]}
